The supplement of paper PMC10307832

How the values were obtained:
Test in all cases: relative viability (nuclei count vs DMSO), 5 days (fraction); higher = more cells survive
[1] = tested on: A549
In short: (§1)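 Lung cancer cell lines were pin-tool dosed in 1536-well plates on the day after seeding, with either a lone drug or a fixed anchor-drug dose plus five library-drug doses (not always all listed) in √10 steps. Nuclei were counted on 4× images after 5 days. Relative viability is the ratio of treated-well to vehicle-well nuclei counts, with each value a median of duplicate plates.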

[2] = tested on: HCC-366
In short: as §1

[3] = tested on: HCC-44
In short: as §1

[4] = tested on: LOU-NH91
In short: as §1

[5] = tested on: LXF-289
In short: as §1

[6] = tested on: NCI-H1437
In short: as §1

[7] = tested on: NCI-H1648
In short: as §1

[8] = tested on: NCI-H2085
In short: as §1

[9] = tested on: NCI-H3122
In short: as §1

Work on Cc1sc2c(c1C)C(c1ccc(Cl)cc1)=N[C@@H](CC(=O)OC(C)(C)C)c1nnc(C)n1-2 [JQ1] + Nc1ncn([C@H]2C[C@H](O)[C@@H](CO)O2)c(=O)n1 [Decitabine] (partner 2 µM) yielded a relative viability ([1]; first compound 0.04 µM) of 0.275, a relative viability ([1]; first compound 0.1265 µM) of 0.267 and a relative viability ([1]; first compound 0.4 µM) of 0.378. For the same compound, the relative viability ([1]; first compound 1.265 µM) was 0.405, the relative viability ([1]; first compound 4 µM) was 0.252 and the relative viability ([2]; first compound 0.04 µM) was 0.309. For the same compound, the relative viability ([2]; first compound 0.4 µM) was 0.35, the relative viability ([2]; first compound 1.265 µM) was 0.36 and the relative viability ([2]; first compound 4 µM) was 0.293. It also gave a relative viability ([3]; first compound 0.04 µM) of 0.955, a relative viability ([3]; first compound 0.1265 µM) of 0.63 and a relative viability ([3]; first compound 0.4 µM) of 0.834. The relative viability ([3]; first compound 1.265 µM) was 0.903, the relative viability ([3]; first compound 4 µM) was 0.516 and the relative viability ([4]; first compound 0.04 µM) was 0.826. For the same compound, the relative viability ([4]; first compound 0.1265 µM) was 0.725, the relative viability ([4]; first compound 0.4 µM) was 0.554 and the relative viability ([4]; first compound 1.265 µM) was 0.491. It also gave a relative viability ([4]; first compound 4 µM) of 0.521, a relative viability ([5]; first compound 0.04 µM) of 0.368 and a relative viability ([5]; first compound 0.1265 µM) of 0.401. The relative viability ([5]; first compound 0.4 µM) was 0.344, the relative viability ([5]; first compound 1.265 µM) was 0.226 and the relative viability ([5]; first compound 4 µM) was 0.222. The relative viability ([6]; first compound 0.04 µM) was 0.544, the relative viability ([6]; first compound 0.1265 µM) was 0.577 and the relative viability ([6]; first compound 0.4 µM) was 0.55. The relative viability ([6]; first compound 1.265 µM) was 0.486, the relative viability ([6]; first compound 4 µM) was 0.37 and the relative viability ([7]; first compound 0.04 µM) was 0.497. For the same compound, the relative viability ([7]; first compound 0.1265 µM) was 0.652, the relative viability ([7]; first compound 0.4 µM) was 0.409 and the relative viability ([7]; first compound 1.265 µM) was 0.398. The relative viability ([7]; first compound 4 µM) was 0.286, the relative viability ([8]; first compound 0.04 µM) was 0.538 and the relative viability ([8]; first compound 0.1265 µM) was 0.595. The relative viability ([8]; first compound 0.4 µM) was 0.509, the relative viability ([8]; first compound 1.265 µM) was 0.454 and the relative viability ([8]; first compound 4 µM) was 0.473. It also gave a relative viability ([9]; first compound 0.04 µM) of 0.489, a relative viability ([9]; first compound 0.1265 µM) of 0.395 and a relative viability ([9]; first compound 0.4 µM) of 0.517. For the same compound, the relative viability ([9]; first compound 1.265 µM) was 0.343 and the relative viability ([9]; first compound 4 µM) was 0.38.
